ChEMBL document CHEMBL4507277

How the values were obtained:
[1] = target: RAF proto-oncogene serine/threonine-protein kinase (Homo sapiens) (UniProt P04049); details: Compound concentration 1000.0 nM
[2] = target: SRSF protein kinase 3 (Homo sapiens) (UniProt Q9UPE1); details: Compound concentration 1000.0 nM
[3] = target: Macrophage-stimulating protein receptor (Homo sapiens) (UniProt Q04912); details: Compound concentration 1000.0 nM
[4] = system: Phosphatidylinositol 4,5-bisphosphate 3-kinase catalytic subunit alpha isoform (Homo sapiens), P42336 [I800L]; details: Compound concentration 1000.0 nM
[5] = target: Mitogen-activated protein kinase 14 (Homo sapiens) (UniProt Q16539); details: Compound concentration 1000.0 nM
[6] = system: Epidermal growth factor receptor (Homo sapiens), P00533 [UNDEFINED MUTATION]; details: Compound concentration 1000.0 nM
[7] = target: Vascular endothelial growth factor receptor 2 (Homo sapiens) (UniProt P35968); details: Compound concentration 1000.0 nM
[8] = target: GABA-A receptor; anion channel (Rattus norvegicus) (UniProt O09028+P15431+P18506+P18508+P19969+P20236+P23574+P23576+P28471+P28473+P30191+P62813+P63079+P63138+Q91ZM7+Q9ES14); details: Compound concentration 10.0 uM
[9] = system: Fibroblast growth factor receptor 3 (Homo sapiens), P22607 [G697C]; details: Compound concentration 1000.0 nM
[10] = target: Phosphorylase b kinase gamma catalytic chain, skeletal muscle/heart isoform (Homo sapiens) (UniProt Q16816); details: Compound concentration 1000.0 nM
Phosphorylase b kinase gamma catalytic chain, skeletal muscle/heart isoform (Homo sapiens), sequence (Q16816 whole entry, looked up, canonical isoform): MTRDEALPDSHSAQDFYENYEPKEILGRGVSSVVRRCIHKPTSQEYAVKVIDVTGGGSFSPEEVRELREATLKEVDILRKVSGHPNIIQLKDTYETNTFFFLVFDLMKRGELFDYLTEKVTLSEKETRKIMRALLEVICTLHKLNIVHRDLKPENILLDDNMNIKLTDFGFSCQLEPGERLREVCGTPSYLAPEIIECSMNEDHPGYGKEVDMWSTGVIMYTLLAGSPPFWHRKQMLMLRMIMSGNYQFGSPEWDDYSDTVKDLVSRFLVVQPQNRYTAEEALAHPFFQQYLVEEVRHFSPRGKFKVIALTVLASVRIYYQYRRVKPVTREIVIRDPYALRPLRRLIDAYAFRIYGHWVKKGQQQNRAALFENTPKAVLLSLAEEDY

[11] = target: Serine/threonine-protein kinase LATS1 (Homo sapiens) (UniProt O95835); details: Compound concentration 1000.0 nM
[12] = target: Serine/threonine-protein kinase pim-3 (Homo sapiens) (UniProt Q86V86); details: Compound concentration 1000.0 nM
[13] = target: Serine/threonine-protein kinase Nek11 (Homo sapiens) (UniProt Q8NG66); details: Compound concentration 1000.0 nM
[14] = target: Mitogen-activated protein kinase kinase kinase 1 (Homo sapiens) (UniProt Q13233); details: Compound concentration 1000.0 nM
[15] = target: Phosphatidylinositol 3-kinase catalytic subunit type 3 (Homo sapiens) (UniProt Q8NEB9); details: Compound concentration 1000.0 nM
[16] = target: 5-hydroxytryptamine receptor 1E (Homo sapiens) (UniProt P28566); details: Compound concentration 10.0 uM
[17] = target: Rho-associated protein kinase 1 (Homo sapiens) (UniProt Q13464); details: Compound concentration 1000.0 nM
[18] = target: Mitogen-activated protein kinase kinase kinase 19 (Homo sapiens) (UniProt Q56UN5); details: Compound concentration 1000.0 nM
[19] = target: Myosin-IIIa (Homo sapiens) (UniProt Q8NEV4); details: Compound concentration 1000.0 nM
[20] = target: Tyrosine-protein kinase Fer (Homo sapiens) (UniProt P16591); details: Compound concentration 1000.0 nM
[21] = system: Receptor-type tyrosine-protein kinase FLT3 (Homo sapiens), P36888 [UNDEFINED MUTATION]; details: Compound concentration 1000.0 nM
[22] = target: Serine/threonine-protein kinase DCLK2 (Homo sapiens) (UniProt Q8N568); details: Compound concentration 1000.0 nM
Serine/threonine-protein kinase DCLK2 (Homo sapiens), sequence (Q8N568 whole entry): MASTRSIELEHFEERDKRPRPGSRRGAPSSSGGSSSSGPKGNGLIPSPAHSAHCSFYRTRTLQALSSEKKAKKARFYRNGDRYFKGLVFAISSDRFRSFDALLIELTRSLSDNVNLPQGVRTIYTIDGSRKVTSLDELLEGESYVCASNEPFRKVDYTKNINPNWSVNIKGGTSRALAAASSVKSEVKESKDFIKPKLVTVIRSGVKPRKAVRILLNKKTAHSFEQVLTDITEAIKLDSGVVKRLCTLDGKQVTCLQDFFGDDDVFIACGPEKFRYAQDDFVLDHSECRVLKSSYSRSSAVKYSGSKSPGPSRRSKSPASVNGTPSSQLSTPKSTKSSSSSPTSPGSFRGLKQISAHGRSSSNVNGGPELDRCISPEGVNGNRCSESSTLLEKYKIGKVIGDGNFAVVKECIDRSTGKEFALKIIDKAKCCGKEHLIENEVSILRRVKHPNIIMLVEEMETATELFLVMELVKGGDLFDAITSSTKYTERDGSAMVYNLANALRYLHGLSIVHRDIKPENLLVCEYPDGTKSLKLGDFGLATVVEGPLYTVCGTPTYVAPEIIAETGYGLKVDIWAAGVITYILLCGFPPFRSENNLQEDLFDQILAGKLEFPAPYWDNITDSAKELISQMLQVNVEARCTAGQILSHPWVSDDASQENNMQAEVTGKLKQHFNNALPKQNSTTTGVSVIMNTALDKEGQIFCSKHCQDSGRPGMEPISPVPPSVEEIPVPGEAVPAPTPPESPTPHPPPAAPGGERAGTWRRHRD

[23] = target: Serine/threonine-protein kinase Nek6 (Homo sapiens) (UniProt Q9HC98); details: Compound concentration 1000.0 nM
Serine/threonine-protein kinase Nek6 (Homo sapiens), sequence (Q9HC98 whole entry): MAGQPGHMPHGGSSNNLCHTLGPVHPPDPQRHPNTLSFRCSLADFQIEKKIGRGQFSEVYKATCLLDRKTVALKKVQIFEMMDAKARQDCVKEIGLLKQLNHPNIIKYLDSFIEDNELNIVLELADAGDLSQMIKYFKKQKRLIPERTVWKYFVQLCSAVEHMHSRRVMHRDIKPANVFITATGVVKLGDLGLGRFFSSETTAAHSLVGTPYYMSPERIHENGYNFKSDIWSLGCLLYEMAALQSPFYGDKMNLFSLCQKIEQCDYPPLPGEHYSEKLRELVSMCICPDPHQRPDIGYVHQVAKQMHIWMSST

[24] = target: Homeodomain-interacting protein kinase 3 (Homo sapiens) (UniProt Q9H422); details: Compound concentration 1000.0 nM
[25] = target: Cyclin-dependent kinase 13 (Homo sapiens) (UniProt Q14004); details: Compound concentration 1000.0 nM
[26] = system: Hepatocyte growth factor receptor (Homo sapiens), P08581 [Y1235D]; details: Compound concentration 1000.0 nM
[27] = target: Receptor tyrosine-protein kinase erbB-4 (Homo sapiens) (UniProt Q15303); details: Compound concentration 1000.0 nM
[28] = target: Mitogen-activated protein kinase kinase kinase 14 (Homo sapiens) (UniProt Q99558); details: Compound concentration 1000.0 nM
[29] = target: Casein kinase I isoform alpha (Homo sapiens) (UniProt P48729); details: Compound concentration 1000.0 nM
[30] = target: 5-hydroxytryptamine receptor 6 (Homo sapiens) (UniProt P50406); details: Compound concentration 10.0 uM
5-hydroxytryptamine receptor 6 (Homo sapiens), sequence (P50406 whole entry): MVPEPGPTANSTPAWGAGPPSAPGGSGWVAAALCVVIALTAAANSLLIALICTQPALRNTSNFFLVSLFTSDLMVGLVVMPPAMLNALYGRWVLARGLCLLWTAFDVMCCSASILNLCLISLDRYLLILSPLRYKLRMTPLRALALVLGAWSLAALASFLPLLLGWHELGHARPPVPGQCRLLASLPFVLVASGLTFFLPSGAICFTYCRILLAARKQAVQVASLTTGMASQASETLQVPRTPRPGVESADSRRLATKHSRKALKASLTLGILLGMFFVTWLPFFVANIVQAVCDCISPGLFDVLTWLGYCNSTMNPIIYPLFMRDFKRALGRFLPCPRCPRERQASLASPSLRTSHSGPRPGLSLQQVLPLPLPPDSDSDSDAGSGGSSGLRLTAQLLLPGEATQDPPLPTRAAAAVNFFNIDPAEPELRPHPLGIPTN

[31] = target: Mitogen-activated protein kinase 6 (Homo sapiens) (UniProt Q16659); details: Compound concentration 1000.0 nM
Mitogen-activated protein kinase 6 (Homo sapiens), sequence (Q16659 whole entry): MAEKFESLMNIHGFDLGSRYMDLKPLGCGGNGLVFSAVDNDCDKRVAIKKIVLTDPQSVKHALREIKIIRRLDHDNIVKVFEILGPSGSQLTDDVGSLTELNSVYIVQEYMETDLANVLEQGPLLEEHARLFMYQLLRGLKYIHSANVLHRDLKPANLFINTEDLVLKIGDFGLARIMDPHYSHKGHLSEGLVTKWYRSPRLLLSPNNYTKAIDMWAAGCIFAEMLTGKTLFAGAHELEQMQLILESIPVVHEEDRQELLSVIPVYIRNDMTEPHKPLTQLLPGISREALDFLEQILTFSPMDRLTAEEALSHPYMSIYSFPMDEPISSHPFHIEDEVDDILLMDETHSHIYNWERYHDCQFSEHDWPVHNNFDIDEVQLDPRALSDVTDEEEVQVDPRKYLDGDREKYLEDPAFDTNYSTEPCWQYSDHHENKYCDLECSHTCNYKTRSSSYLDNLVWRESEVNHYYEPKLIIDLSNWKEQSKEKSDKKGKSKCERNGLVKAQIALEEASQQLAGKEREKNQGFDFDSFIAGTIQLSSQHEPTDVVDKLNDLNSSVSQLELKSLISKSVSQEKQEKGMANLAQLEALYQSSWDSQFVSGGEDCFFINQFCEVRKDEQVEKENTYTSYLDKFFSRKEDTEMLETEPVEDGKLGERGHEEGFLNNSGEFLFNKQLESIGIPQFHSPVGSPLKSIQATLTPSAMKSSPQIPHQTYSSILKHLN

[32] = target: Myotonin-protein kinase (Homo sapiens) (UniProt Q09013); details: Compound concentration 1000.0 nM
[33] = target: cGMP-dependent protein kinase 2 (Homo sapiens) (UniProt Q13237); details: Compound concentration 1000.0 nM
cGMP-dependent protein kinase 2 (Homo sapiens), sequence (Q13237 whole entry): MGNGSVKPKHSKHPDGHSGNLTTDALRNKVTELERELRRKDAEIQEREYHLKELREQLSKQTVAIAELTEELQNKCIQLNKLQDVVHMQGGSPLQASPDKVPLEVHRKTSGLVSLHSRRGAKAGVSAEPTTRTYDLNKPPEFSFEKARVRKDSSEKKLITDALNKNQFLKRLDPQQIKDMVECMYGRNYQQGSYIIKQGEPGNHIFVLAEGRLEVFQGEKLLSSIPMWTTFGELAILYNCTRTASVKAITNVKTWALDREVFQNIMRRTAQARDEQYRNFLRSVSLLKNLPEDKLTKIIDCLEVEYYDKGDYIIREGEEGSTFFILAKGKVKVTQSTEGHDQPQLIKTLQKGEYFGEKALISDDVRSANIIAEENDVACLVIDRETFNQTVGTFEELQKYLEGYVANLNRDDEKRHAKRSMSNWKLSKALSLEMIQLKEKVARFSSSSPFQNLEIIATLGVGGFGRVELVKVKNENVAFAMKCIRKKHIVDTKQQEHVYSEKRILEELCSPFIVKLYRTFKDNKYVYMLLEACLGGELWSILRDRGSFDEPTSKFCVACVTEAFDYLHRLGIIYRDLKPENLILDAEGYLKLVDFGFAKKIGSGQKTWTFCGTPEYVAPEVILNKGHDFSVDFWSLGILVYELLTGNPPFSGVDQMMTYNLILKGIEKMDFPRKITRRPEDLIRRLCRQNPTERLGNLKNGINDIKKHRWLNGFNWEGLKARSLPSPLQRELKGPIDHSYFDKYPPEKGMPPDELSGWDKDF

[34] = target: Serine/threonine-protein kinase LATS2 (Homo sapiens) (UniProt Q9NRM7); details: Compound concentration 1000.0 nM
[35] = system: Proto-oncogene tyrosine-protein kinase receptor Ret (Homo sapiens), P07949 [V804M]; details: Compound concentration 1000.0 nM
[36] = target: Tyrosine-protein kinase ABL1 (Homo sapiens) (UniProt P00519); details: Compound concentration 1000.0 nM
[37] = target: D(1B) dopamine receptor (Homo sapiens) (UniProt P21918); details: Compound concentration 10.0 uM
[38] = target: Cyclin-dependent kinase 17 (Homo sapiens) (UniProt Q00537); details: Compound concentration 1000.0 nM
[39] = target: Serine/threonine-protein kinase Nek5 (Homo sapiens) (UniProt Q6P3R8); details: Compound concentration 1000.0 nM
[40] = target: Tyrosine-protein kinase FRK (Homo sapiens) (UniProt P42685); details: Compound concentration 1000.0 nM
[41] = target: Epidermal growth factor receptor (Homo sapiens) (UniProt P00533); details: Compound concentration 1000.0 nM
[42] = target: Tyrosine-protein kinase SYK (Homo sapiens) (UniProt P43405); details: Compound concentration 1000.0 nM
[43] = system: Tyrosine-protein kinase ABL1 (Homo sapiens), P00519 [E255K]; details: Compound concentration 1000.0 nM
[44] = system: Epidermal growth factor receptor (Homo sapiens), P00533 [G719C]; details: Compound concentration 1000.0 nM

Macrophage-stimulating protein receptor (Homo sapiens), sequence (Q04912 25-304 limits assumed): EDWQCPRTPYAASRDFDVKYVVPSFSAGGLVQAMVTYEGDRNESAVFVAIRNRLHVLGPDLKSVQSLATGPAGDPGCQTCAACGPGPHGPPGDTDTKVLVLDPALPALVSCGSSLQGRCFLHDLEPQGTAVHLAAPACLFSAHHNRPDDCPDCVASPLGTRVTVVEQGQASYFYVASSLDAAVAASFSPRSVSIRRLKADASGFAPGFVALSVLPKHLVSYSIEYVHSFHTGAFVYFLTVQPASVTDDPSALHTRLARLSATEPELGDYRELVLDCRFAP
Macrophage-stimulating protein receptor (Homo sapiens), sequence (Q04912 310-1400 limits assumed): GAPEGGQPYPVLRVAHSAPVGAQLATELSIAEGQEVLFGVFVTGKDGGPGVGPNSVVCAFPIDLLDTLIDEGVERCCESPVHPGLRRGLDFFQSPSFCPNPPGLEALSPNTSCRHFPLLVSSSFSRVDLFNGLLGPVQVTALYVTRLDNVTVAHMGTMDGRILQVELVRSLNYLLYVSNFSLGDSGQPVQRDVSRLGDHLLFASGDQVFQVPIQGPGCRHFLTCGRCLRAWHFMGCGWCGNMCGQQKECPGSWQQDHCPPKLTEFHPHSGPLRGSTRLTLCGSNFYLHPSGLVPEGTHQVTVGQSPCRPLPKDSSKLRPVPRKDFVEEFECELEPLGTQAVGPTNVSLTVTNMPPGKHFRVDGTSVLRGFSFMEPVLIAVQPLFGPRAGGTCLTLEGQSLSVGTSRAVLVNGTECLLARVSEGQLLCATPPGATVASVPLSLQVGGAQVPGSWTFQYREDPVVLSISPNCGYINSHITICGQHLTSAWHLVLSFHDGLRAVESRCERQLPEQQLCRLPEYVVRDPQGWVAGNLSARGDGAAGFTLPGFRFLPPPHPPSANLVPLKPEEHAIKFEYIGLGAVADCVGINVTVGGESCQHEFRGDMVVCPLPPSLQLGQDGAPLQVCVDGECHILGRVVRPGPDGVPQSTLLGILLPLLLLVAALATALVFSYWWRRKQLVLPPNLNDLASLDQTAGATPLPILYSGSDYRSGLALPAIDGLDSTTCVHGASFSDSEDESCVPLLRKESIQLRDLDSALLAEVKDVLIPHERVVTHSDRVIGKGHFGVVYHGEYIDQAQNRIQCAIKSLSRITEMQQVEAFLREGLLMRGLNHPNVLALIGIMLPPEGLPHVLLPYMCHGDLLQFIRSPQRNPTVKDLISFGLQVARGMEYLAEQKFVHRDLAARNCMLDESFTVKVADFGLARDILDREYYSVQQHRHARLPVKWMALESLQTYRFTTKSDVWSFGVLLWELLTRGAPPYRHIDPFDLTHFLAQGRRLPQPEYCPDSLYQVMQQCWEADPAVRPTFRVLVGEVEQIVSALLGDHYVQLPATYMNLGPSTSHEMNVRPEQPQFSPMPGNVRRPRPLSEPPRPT

Structure (SMILES): CCS(=O)(=O)c1cc2cc(C[C@@](O)(CC(C)(C)c3ccc(F)cc3C(N)=O)C(F)(F)F)[nH]c2cn1
- residual activity [1]: 81%
- residual activity [2]: 100%
- residual activity [3]: 85%
- residual activity [4]: 70%
- residual activity [5]: 97%
- residual activity [6]: 79%
- residual activity [7]: 92%
- inhibition [8]: 3.48%
- residual activity [9]: 100%
- residual activity [10]: 67%
- residual activity [11]: 77%
- residual activity [12]: 100%
- residual activity [13]: 100%
- residual activity [14]: 51%
- residual activity [15]: 96%
- inhibition [16]: 11.2%
- residual activity [17]: 69%
- residual activity [18]: 76%
- residual activity [19]: 80%
- residual activity [20]: 74%
- residual activity [21]: 86%
- residual activity [22]: 100%
- residual activity [23]: 100%
- residual activity [24]: 65%
- residual activity [25]: 91%
- residual activity [26]: 100%
- residual activity [27]: 100%
- residual activity [28]: 59%
- residual activity [29]: 86%
- inhibition [30]: -3.13%
- residual activity [31]: 72%
- residual activity [32]: 85%
- residual activity [33]: 86%
- residual activity [34]: 100%
- residual activity [35]: 74%
- residual activity [36]: 99%
- inhibition [37]: 32.4%
- residual activity [38]: 82%
- residual activity [39]: 100%
- residual activity [40]: 100%
- residual activity [41]: 96%
- residual activity [42]: 92%
- residual activity [43]: 90%
- residual activity [44]: 100%

Structure (SMILES): CCS(=O)(=O)c1cc2cc(C[C@](O)(CC(C)(C)c3ccc(F)cc3C(N)=O)C(F)(F)F)[nH]c2cn1
- residual activity [1]: 83%
- residual activity [2]: 100%
- residual activity [3]: 100%
- residual activity [4]: 73%
- residual activity [5]: 100%
- residual activity [6]: 93%
- residual activity [7]: 83%
- inhibition [8]: -1.62%
- residual activity [9]: 96%
- residual activity [10]: 66%
- residual activity [11]: 98%
- residual activity [12]: 100%
- residual activity [13]: 93%
- residual activity [14]: 87%
- residual activity [15]: 100%
- inhibition [16]: 4.75%
- residual activity [17]: 84%
- residual activity [18]: 93%
- residual activity [19]: 94%
- residual activity [20]: 96%
- residual activity [21]: 95%
- residual activity [22]: 100%
- residual activity [23]: 100%
- residual activity [24]: 100%
- residual activity [25]: 100%
- residual activity [26]: 100%
- residual activity [27]: 100%
- residual activity [28]: 88%
- residual activity [29]: 100%
- inhibition [30]: -3.78%
- residual activity [31]: 100%
- residual activity [32]: 99%
- residual activity [33]: 85%
- residual activity [34]: 40%
- residual activity [35]: 100%
- residual activity [36]: 100%
- inhibition [37]: 34.2%
- residual activity [38]: 88%
- residual activity [39]: 100%
- residual activity [40]: 80%
- residual activity [41]: 81%
- residual activity [42]: 100%
- residual activity [43]: 92%
- residual activity [44]: 100%
